What follows are compounds tested against PD-L1 (Homo sapiens (Human), UniProt Q9NZQ7) (assay: PD-L1 HTRF assay (PD-1/PD-L1 interaction)). Conditions: PD-L1 His 6 nM, PD-1 Fc 6 nM; inhibitors 3-fold diluted from 20 μM.
Type: binding
Protocol: PD-L1 small molecule inhibitors were diluted by 3-fold starting from 20 μM and a final concentration of 0.001 μM and added to the well. PD-1 Fc protein was added at the final concentration of 6 nM. PD-L1 His protein, PD-L1 small molecule inhibitors, and PD1 Fc proteins were added to the well in this order, with each 5 μl volume, and were incubated for 15 minutes at room temperature. […] The plate was read using PerkinElmer Envision plate reader and data was analyzed by Prism 6 software.

Sequence of PD-L1 (Q9NZQ7 19-238): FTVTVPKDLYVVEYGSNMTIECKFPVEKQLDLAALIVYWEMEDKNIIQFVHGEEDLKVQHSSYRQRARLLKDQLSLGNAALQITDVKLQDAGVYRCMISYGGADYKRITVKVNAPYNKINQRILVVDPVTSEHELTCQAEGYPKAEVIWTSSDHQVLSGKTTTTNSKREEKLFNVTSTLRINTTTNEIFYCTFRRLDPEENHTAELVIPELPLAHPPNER

| Compound | IC50 [nM] |
| --- | --- |
| COC(=O)c1c[nH]c(-c2cc(Cl)c(OCc3cccc(-c4cccc(OCCCN5CCC(O)CC5)c4C)c3C)cc2OCc2cncc(C#N)c2)n1 [Example 20, Methyl 2-(5-chloro-2-((5-cyanopyridin-3-yl)methoxy)-4-((3′-(3-(4-hydroxypiperidin-1-yl)propoxy)-2,2′-dimethyl-[1,1′-biphenyl]-3-yl)methoxy)phenyl)-1H-imidazole-5-carboxylate] | 10 |
| Cc1c(COc2cc(OCc3cncc(C#N)c3)c(C3=NCC(O)CN3CCO)cc2Cl)cccc1-c1cccc(OCCCN2CCC(O)CC2)c1C (centres unmarked) [Example 23] | 14 |
| Cc1c(COc2cc(OCc3cncc(C#N)c3)c(C3=NCC(O)CN3)cc2Cl)cccc1-c1cccc(OCCCN2CCC(O)CC2)c1C (centres unmarked) [Example 16, 5-[[4-Chloro-5-[[3-[3-[3-(4-hydroxy-1-piperidyl)propoxy]-2-methyl-phenyl]-2-methyl-phenyl]methoxy]-2-(5-hydroxy-1,4,5,6-tetrahydropyrimidin-2-yl)phenoxy]methyl]pyridine-3-carbonitrile] | 1.2 |
| Cc1c(COc2ccc(C3=NCCCN3CCO)c(OCc3cccc(C#N)c3)c2)cccc1-c1ccccc1 [Example 12, 3-[[2-[1-(2-Hydroxyethyl)-5,6-dihydro-4H-pyrimidin-2-yl]-5-[(2-methyl-3-phenyl-phenyl)methoxy]phenoxy]methyl]benzonitrile] | 110 |
| Cc1c(COc2cc(OCc3cncc(C#N)c3)c(C3=NCC(O)CN3)cc2Cl)cccc1-c1cccc(COc2cc(OCc3cncc(C#N)c3)c(C3=NCC(O)CN3)cc2Cl)c1C (centres unmarked) [Example 28, 5-[[4-chloro-5-[[3-[3-[[2-Chloro-5-[(5-cyano-3-pyridyl)methoxy]-4-(5-hydroxy-1,4,5,6-tetrahydropyrimidin-2-yl)phenoxy]methyl]-2-methyl-phenyl]-2-methyl-phenyl]methoxy]-2-(5-hydroxy-1,4,5,6-tetrahydropyrimidin-2-yl)phenoxy]methyl]pyridine-3-carbonitrile] | 6.7 |
| 5-(((1,3-dihydroxypropan-2-yl)amino)methyl)-N-(3′-(5-(((2-hydroxyethyl)amino)methyl)picolinamido)-2,2′-dimethyl-[1,1′-biphenyl]-3-yl)picolinamide [Example 36] | 0.4 |
| Cc1c(COc2cc(OCc3cncc(C#N)c3)c(C3=NCCCN3CCO)cc2Cl)cccc1-c1cccc(OCCCN2CCC(O)CC2)c1C [Example 17, 5-[[4-Chloro-2-[1-(2-hydroxyethyl)-5,6-dihydro-4H-pyrimidin-2-yl]-5-[[3-[3-[3-(4-hydroxy-1-piperidyl)propoxy]-2-methyl-phenyl]-2-methyl-phenyl]methoxy]phenoxy]methyl] pyridine-3-carbonitrile] | 1.5 |
| Cc1c(COc2ccc(/C(=N/CCO)NCCO)c(OCc3cccc(C#N)c3)c2)cccc1-c1ccccc1 [Example 13, 2-[(3-Cyanophenyl)methoxy]-N,N′-bis(2-hydroxyethyl)-4-[(2-methyl-3-phenyl-phenyl)methoxy]benzamidine] | 170 |
| Cc1c(COc2ccc(C3=NCCCN3)c(OCc3cccc(C#N)c3)c2)cccc1-c1ccccc1 [Example 9, 3-[[5-[(2-Methyl-3-phenyl-phenyl)methoxy]-2-(1,4,5,6-tetrahydropyrimidin-2-yl)phenoxy]methyl]benzonitrile] | 150 |
| Cc1c(COc2ccc(C3=NCCN3)c(OCc3cccc(C#N)c3)c2)cccc1-c1ccccc1 [Example 1, 3-((2-(4,5-Dihydro-1H-imidazol-2-yl)-5-((2-methyl-[1,1′-biphenyl]-3-yl)methoxy)phenoxy)methyl)benzonitrile] | 280 |
| Cc1c(COc2cc(OCc3cncc(C#N)c3)c(C3=NCCN3CC(=O)O)cc2Cl)cccc1-c1cccc(OCCCN2CCC(O)CC2)c1C [Example 24, 2-[2-[5-Chloro-2-[(5-cyano-3-pyridyl)methoxy]-4-[[3-[3-[3-(4-hydroxy-1-piperidyl)propoxy]-2-methyl-phenyl]-2-methyl-phenyl]methoxy]phenyl]-4,5-dihydroimidazol-1-yl]acetic acid] | 1.1 |
| Cc1c(COc2ccc(C3=NCCN3C)c(OCc3cccc(C#N)c3)c2)cccc1-c1ccccc1 [Example 3, 3-[[2-(1-Methyl-4,5-dihydroimidazol-2-yl)-5-[(2-methyl-3-phenyl-phenyl)methoxy]phenoxy]methyl]benzonitrile] | 320 |
| Cc1c(COc2cc(OCc3cncc(C#N)c3)c(C3=NCC(O)CN3)cc2Cl)cccc1-c1cccc(OCC(CN2CCC(O)CC2)c2ccccc2)c1C (centres unmarked) [Example 25, 5-[[4-chloro-5-[[3-[3-[3-(4-hydroxy-1-piperidyl)-2-phenyl-propoxy]-2-methyl-phenyl]-2-methyl-phenyl]methoxy]-2-(5-hydroxy-1,4,5,6-tetrahydropyrimidin-2-yl)phenoxy]methyl]pyridine-3-carbonitrile] | 30 |
| CC(=O)NCc1c[nH]c(-c2ccc(OCc3cccc(-c4ccccc4)c3C)cc2OCc2cccc(C#N)c2)n1 [Example 8, N-[[2-[2-[(3-Cyanophenyl)methoxy]-4-[(2-methyl-3-phenyl-phenyl)methoxy]phenyl]-1H-imidazol-4-yl]methyl]acetamide] | 19000 |
| Cc1c(COc2ccc(-c3nccn3C)c(OCc3cccc(C#N)c3)c2)cccc1-c1ccccc1 [Example 4, 3-[[2-(1-methylimidazol-2-yl)-5-[(2-methyl-3-phenyl-phenyl)methoxy]phenoxy]methyl]benzonitrile] | 5400 |
| Cc1c(COc2cc(OCc3cncc(C#N)c3)c(C3=NCC(O)CN3)cc2Cl)cccc1-c1cccc(OCC(CO)c2ccccc2)c1C (centres unmarked) [Example 26, 5-[[4-Chloro-5-[[3-[3-(3-hydroxy-2-phenyl-propoxy)-2-methyl-phenyl]-2-methyl-phenyl]methoxy]-2-(5-hydroxy-1,4,5,6-tetrahydropyrimidin-2-yl)phenoxy]methyl]pyridine-3-carbonitrile] | 7.4 |
| Cc1c(COc2cc(OCc3cncc(C#N)c3)c(C3=NCCN3CCO)cc2Cl)cccc1-c1cccc(OCCCN2CCC(O)CC2)c1C [Example 22, 5-[[4-Chloro-2-[1-(2-hydroxyethyl)-4,5-dihydroimidazol-2-yl]-5-[[3-[3-[3-(4-hydroxy-1-piperidyl)propoxy]-2-methyl-phenyl]-2-methyl-phenyl]methoxy]phenoxy]methyl]pyridine-3-carbonitrile] | 3.8 |
| Cc1c(NC(=O)c2ccc(CNCCO)cn2)cccc1-c1cccc(NC(=O)c2ccc(CN3CC[C@@H](O)C3)cn2)c1C [Example 37, (R)-5-(((2-hydroxyethyl)amino)methyl)-N-(3′-(5-((3-hydroxypyrrolidin-1-yl)methyl)picolinamido)-2,2′-dimethyl-[1,1′-biphenyl]-3-yl)picolinamide] | 0.8 |
| COc1cc(OCc2cccc(-c3cccc(COc4cc(OC)c(CNCCO)cc4Cl)c3C)c2C)c(Cl)cc1CNCCO [Example 31, 2,2′-((((((2,2′-Dimethyl-[1,1′-biphenyl]-3,3′-diyl)bis(methylene))bis(oxy))bis (5-chloro-2-methoxy-4,1-phenylene))bis(methylene))bis(azanediyl))bis(ethan-1-ol)] | 1 |
| Cc1c(COc2ccc(C3=NCC(O)CN3)c(OCc3cncc(C#N)c3)c2)cccc1-c1ccccc1 (centres unmarked) [Example 15, 5-((2-(5-Hydroxy-1,4,5,6-tetrahydropyrimidin-2-yl)-5-((2-methyl-[1,1′-biphenyl]-3-yl)methoxy)phenoxy)methyl)nicotinonitrile] | 15 |
| Cc1c(NC(=O)c2ccc(C3=NCCC(C(=O)O)N3)cn2)cccc1-c1cccc(NC(=O)c2ccc(C3=NCCC(C(=O)O)N3)cn2)c1C (centres unmarked) [Example 35, 2-[6-[[3-[3-[[5-(4-Carboxy-1,4,5,6-tetrahydropyrimidin-2-yl)pyridine-2-carbonyl]amino]-2-methyl-phenyl]-2-methyl-phenyl]carbamoyl]-3-pyridyl]-1,4,5,6-tetrahydropyrimidine-4-carboxylic acid] | 0.3 |
| Cc1c(COc2cc(OCc3cncc(C#N)c3)c(C3=NC(C(=O)O)CCN3)cc2Cl)cccc1-c1cccc(OCCCN2CCC(O)CC2)c1C (centres unmarked) [Example 18, 2-[5-Chloro-2-[(5-cyano-3-pyridyl)methoxy]-4-[[3-[3-[3-(4-hydroxy-1-piperidyl)propoxy]-2-methyl-phenyl]-2-methyl-phenyl]methoxy]phenyl]-1,4,5,6-tetrahydropyrimidine-4-carboxylic acid] | 1.2 |
| Cc1c(NC(=O)c2ccc(CO)cn2)cccc1-c1cccc(NC(=O)c2ccc(CO)cn2)c1C [Example 32, 5-(Hydroxymethyl)-N-[3-[3-[[5-(hydroxymethyl)pyridine-2-carbonyl]amino]-2-methyl-phenyl]-2-methyl-phenyl]pyridine-2-carboxamide] | 3.2 |
| Cc1c(COc2ccc(C3=NCC(O)CN3)c(OCc3cccc(C#N)c3)c2)cccc1-c1ccccc1 (centres unmarked) [Example 10, 3-[[2-(5-Hydroxy-1,4,5,6-tetrahydropyrimidin-2-yl)-5-[(2-methyl-3-phenyl-phenyl)methoxy]phenoxy]methyl]benzonitrile] | 100 |
| Cc1c(COc2cc(OCc3cncc(C#N)c3)c(C3=NC(C(=O)O)CN3)cc2Cl)cccc1-c1cccc(OCCCN2CCC(O)CC2)c1C (centres unmarked) [Example 19, 2-[5-Chloro-2-[(5-cyano-3-pyridyl)methoxy]-4-[[3-[3-[3-(4-hydroxy-1-piperidyl)propoxy]-2-methyl-phenyl]-2-methyl-phenyl]methoxy]phenyl]-4,5-dihydro-1H-imidazole-4-carboxylic acid] | 1.2 |
| Cc1c(NC(=O)c2ccc(CNCCO)cn2)cccc1-c1cccc(NC(=O)c2ccc(CN(C)CCO)cn2)c1C [Example 38, 5-(((2-hydroxyethyl)-(methyl)amino)methyl)-N-(3′-(5-(((2-hydroxyethyl)amino)methyl)picolinamido)-2,2′-dimethyl-[1,1′-biphenyl]-3-yl)picolinamide] | 0.9 |

Reference: US20240374595A1, “SUBSTITUTED 1,1'-BIPHENYL COMPOUNDS, ANALOGUES THEREOF, AND METHODS USING SAME” (Arbutus Biopharma Corporation, priority 2018, published 2024)
